In test [1] the target is Human CB2R (Cannabanoid receptor 2) (Homo sapiens (Human), UniProt P34972). The test can be described thus: CB-2 in vitro cAMP (HTRF) assay in HEK-293 cells. The class given is cell-based. The following applies: HEK-293 cells stably transfected with human CB2R, 250 nM Forskolin, mean where tested more than once, read-out: CB-2 (HEK_cAMP) EC50. In a few lines: (§1)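 HEK-293 cells stably expressing human CB1 or CB2 plated overnight, then tested in HBSS/5 mM HEPES/0.1% BSA with 0.5 mM IBMX and forskolin (1.5 μM working dilution). Intracellular cAMP quantified by competitive HTRF immunoassay (d2-cAMP, cryptate anti-cAMP) against a cAMP standard curve; compounds as 1/3 serial dilutions from 10 mM DMSO stocks.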
For orientation: TR-FRET usually uses a lanthanide donor and a delayed reading to cut background.

Test [2] deals with Human CB1R (Cannabanoid receptor 1) (Homo sapiens (Human), UniProt P21554). In words: CB-1 in vitro cAMP (HTRF) assay in HEK-293 cells. The class given is cell-based. The note with it: HEK-293 cells stably transfected with human CB1R, 250 nM Forskolin, mean where tested more than once, read-out: CB-1 (HEK_cAMP) EC50. In short, it runs like this:
as §1

SMILES strings stand for the structures.

A word on the EC50: it is the midpoint of the concentration-response curve.

Chain of Human CB2R (Cannabanoid receptor 2) (P34972 whole entry): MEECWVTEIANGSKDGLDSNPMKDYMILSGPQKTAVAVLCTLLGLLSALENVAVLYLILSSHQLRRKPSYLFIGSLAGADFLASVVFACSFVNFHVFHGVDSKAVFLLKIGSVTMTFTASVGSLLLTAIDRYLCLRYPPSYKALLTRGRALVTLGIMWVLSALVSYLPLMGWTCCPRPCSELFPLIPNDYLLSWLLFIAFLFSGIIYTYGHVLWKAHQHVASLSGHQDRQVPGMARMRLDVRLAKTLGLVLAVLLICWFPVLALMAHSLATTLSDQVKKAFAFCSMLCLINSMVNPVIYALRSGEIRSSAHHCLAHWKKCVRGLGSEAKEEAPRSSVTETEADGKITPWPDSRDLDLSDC
Chain of Human CB1R (Cannabanoid receptor 1) (P21554 whole entry): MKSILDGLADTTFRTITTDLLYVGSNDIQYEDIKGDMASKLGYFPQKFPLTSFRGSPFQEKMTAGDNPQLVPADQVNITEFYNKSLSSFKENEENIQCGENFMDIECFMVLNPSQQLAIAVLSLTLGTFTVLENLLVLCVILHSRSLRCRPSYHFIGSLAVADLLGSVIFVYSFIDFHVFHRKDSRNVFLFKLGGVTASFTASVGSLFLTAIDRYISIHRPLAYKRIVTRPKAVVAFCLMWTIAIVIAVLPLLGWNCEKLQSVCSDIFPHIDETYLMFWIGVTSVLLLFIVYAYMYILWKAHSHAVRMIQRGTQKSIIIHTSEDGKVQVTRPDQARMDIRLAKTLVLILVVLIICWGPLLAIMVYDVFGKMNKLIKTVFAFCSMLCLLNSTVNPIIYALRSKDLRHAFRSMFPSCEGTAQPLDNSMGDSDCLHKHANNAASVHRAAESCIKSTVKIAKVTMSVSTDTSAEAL

On to `NC(=O)COc1ccc(N2CCC(c3nn(C4CC4)c4ccc(C(c5ccc(Cl)cc5)c5ccc(Cl)cc5)cc34)CC2)cc1` [Compound 175], for which the results for the concentration for a half-maximal effect (EC50) in test [1] and in test [2] were more than 10000 nM and 1130 nM, respectively.
For `NC(=O)COc1cccc(N2CCC(c3nn(C4CC4)c4ccc(C(c5ccc(Cl)cc5)c5ccc(Cl)cc5)cc34)CC2)c1` [Compound 199], in that order: more than 10000 nM and 158 nM.
For `O=S(=O)(N1CCC(c2nn(C3CC3)c3ccc(C(c4ccc(Cl)cc4)c4ccc(Cl)cc4)cc23)CC1)C(F)(F)F` [Compound 105], in that order: more than 10000 nM and 8 nM.
For `NC(=O)c1ccc(C(c2ccc(Cl)cc2)c2ccc3nn(C4CC4)c(C4CCN(S(=O)(=O)C(F)(F)F)CC4)c3c2)cc1` (stereo not shown) [Compound 249, 4-((4-chlorophenyl)(2-cyclopropyl-3-(1-(trifluoromethylsulfonyl)piperidin-4-yl)-2H-indazol-5-yl)methyl)benzamide], in that order: more than 10000 nM and 15 nM.
Take `CNC(=O)c1ccc(S(=O)(=O)N2CCC(c3c4cc(C(c5ccc(Cl)cc5)c5ccc(Cl)cc5)ccc4nn3C3CC3)CC2)cn1` [Compound 155, 5-(4-(5-(bis(4-chlorophenyl)methyl)-2-cyclopropyl-2H-indazol-3-yl)piperidin-1-ylsulfonyl)-N-methylpicolinamide]: the EC50 in test [1] is more than 10000 nM; in test [2] it was 6 nM.
For `NC(=O)CCC(=O)N1CCC(c2n[nH]c3ccc(C(c4ccc(Cl)cc4)c4ccc(Cl)cc4)cc23)CC1` [Compound 43], in that order: more than 10000 nM and 169 nM.
For `O=C(O)COc1cccc(N2CCC(c3nn(C4CC4)c4ccc(C(c5ccc(Cl)cc5)c5ccc(Cl)cc5)cc34)CC2)c1` [Compound 191], the figures for the concentration for a half-maximal effect (EC50) in test [1] and in test [2] were more than 10000 nM and 5290 nM, respectively.
For `NC(=O)c1cccc(S(=O)(=O)N2CCC(c3c4cc(C(c5ccc(Cl)cc5)c5ccc(Cl)cc5)ccc4nn3C3CC3)CC2)c1` [Compound 140, 3-(4-(5-(bis(4-chlorophenyl)methyl)-2-cyclopropyl-2H-indazol-3-yl)piperidin-1-ylsulfonyl)benzamide], in that order: more than 10000 nM and 11 nM.
Turning to `NC(=O)COc1cccc(N2CCC(c3c4cc(C(c5ccc(Cl)cc5)c5ccc(Cl)cc5)ccc4nn3C3CC3)CC2)c1` [Compound 195, 2-(3-(4-(5-(bis(4-chlorophenyl)methyl)-2-cyclopropyl-2H-indazol-3-yl)piperidin-1-yl)phenoxy)acetamide], the values for the 50% effective concentration (EC50) in test [1] and in test [2] were 6990 nM and 32 nM, respectively.
Turning to `COc1ccccc1S(=O)(=O)N1CCC(c2c3cc(C(c4ccc(Cl)cc4)c4ccc(Cl)cc4)ccc3nn2C2CC2)CC1` [Compound 156, 5-(bis(4-chlorophenyl)methyl)-2-cyclopropyl-3-(1-(2-methoxyphenylsulfonyl)piperidin-4-yl)-2H-indazole], the results for the EC50 in test [1] and in test [2] were more than 10000 nM and 1 nM, respectively.
For `NC(=O)CS(=O)(=O)N1CCC(c2nn(C3CC3)c3ccc(C(c4ccc(Cl)cc4)c4ccc(Cl)cc4)cc23)CC1` [Compound 115], in that order: more than 10000 nM and 1010 nM.
For `NC(=O)c1ccc(-n2nc(C3CCN(S(=O)(=O)C(F)(F)F)CC3)c3cc(C(c4ccc(Cl)cc4)c4ccc(Cl)cc4)ccc32)cc1` [Compound 205], in that order: 2120 nM and 6 nM.
For `O=C(O)c1ccc(S(=O)(=O)N2CCC(c3n[nH]c4ccc(C(c5ccc(Cl)cc5)c5ccc(Cl)cc5)cc34)C2)cc1` (stereo not shown) [Compound 269], in that order: more than 10000 nM and 590 nM.
For `O=C(O)c1cccc(C(=O)N2CCC(c3c4cc(C(c5ccc(Cl)cc5)c5ccc(Cl)cc5)ccc4nn3C3CC3)CC2)c1` [Compound 111], the EC50 in test [1] is more than 10000 nM; in test [2], 3500 nM.

Values taken from US9682940B2, “Indazole derivatives useful as CB-1 inverse agonists” (Janssen Pharmaceutica NV, priority 2015, dated 2017).
